Reference: PMC8272121, “Synthesis and Evaluation of Chalcone-Quinoline Based Molecular Hybrids as Potential Anti-Malarial Agents” (Molecules, 2021)
Converted amounts (≈) assume the structure as drawn. Where two headings read alike, the source gives them in different places.

How the values were obtained:
[1] = test system: P. falciparum NF54 (drug-sensitive strain); experiment: In vitro antiplasmodial assay (parasite lactate dehydrogenase), chloroquine-sensitive NF54 strain; type: cell-based, Plasmodium falciparum; conditions: sensitive (NF54) strain of P. falciparum, pLDH assay, 48 h, mean of ≥2 independent experiments, read-out: PfNF54 IC50
Protocol: All the synthesized molecular hybrids (6–27) were evaluated for in vitro antiplasmodial activity against the drug-sensitive strain (NF54) of P. falciparum and for cytotoxicity against the Chinese Hamster Ovary (CHO) mammalian cell line using emetine as a reference drug. Aqueous solubility was determined at pH 6.5 (Table 2).
In-vitro anti-plasmodium assay. Compounds were tested using parasite lactate dehydrogenase assay as a marker for parasite survival. The respective stock solutions of CQ diphosphate and test compounds were prepared by dissolving 2 mg/mL in distilled water (for CQ) and 100% DMSO for test compounds. The solutions were then stored at −20 °C, with further dilutions prepared on the day of the experiment. The cultures were synchronized in the ring stage as described previously using 15 mL of 5% (w/v) d-sorbitol in water. Synchronous cultures of PfNF54 (CQS) in the late trophozoite stage were prepared to 2% parasitemia and 2% hematocrit. […] Following incubation, 100 μL of MalStat reagent and 15 μL of resuspended culture were combined, followed by addition of 25 μL of nitro blue tetrazolium chloride (NBT). The plates were kept in the dark for about 10 min to fully develop, and absorbance was measured at 620 nm on a microplate reader. Raw data were exported to Microsoft Excel for dose-response analysis.

[2] = test system: Chinese Hamster Ovary (CHO) mammalian cell line; experiment: Cytotoxicity MTT assay on CHO cells; type: cell-based; conditions: for IC50: Cricetulus griseus, CHO, Chinese hamster ovarian cell line, MTT, 48 h; for SI (selectivity index): SI = IC50 (CHO)/IC50 (PfNF54)
Protocol: All the synthesized molecular hybrids (6–27) were evaluated for in vitro antiplasmodial activity against the drug-sensitive strain (NF54) of P. falciparum and for cytotoxicity against the Chinese Hamster Ovary (CHO) mammalian cell line using emetine as a reference drug. Aqueous solubility was determined at pH 6.5 (Table 2). Cytotoxicity assay. […] The reference standard, emetine, was prepared to 2 mg/mL in distilled water while stock solutions of test compounds were prepared to 20 mg/mL in 100% DMSO with the highest concentration of solvent to which the cells were exposed having no measurable effect on the cell viability. The initial concentration of the compounds and control was 100 μg/mL, which was serially diluted in complete medium with 10-fold dilutions to give six concentrations, the lowest being 0.001 μg/mL. Plates were incubated for 48 h with 100 μL of drug and 100 μL of cell suspension in each well and developed afterward by adding 25 μL of sterile MTT (Thermo Fisher Scientific) to each well, followed by 4 h of incubation in the dark. The plates were then centrifuged; the medium was aspirated, and 100 μL of DMSO was added to dissolve crystals before reading the absorbance at 540 nm. Data were analyzed, and the sigmoidal dose-response was derived using GraphPad Prism v 4.0 software (La Jolla). All experiments were performed for at least three independent biological repeats, each with technical triplicates.

[3] = Aqueous solubility, miniaturized shake flask method (HPLC-DAD); type: physicochemical; conditions: aqueous solution, aqueous buffer, thermodynamic from solid, pH 6.5, shake flask 20 h, 25 °C
Protocol: All the synthesized molecular hybrids (6-27) were evaluated for in vitro antiplasmodial activity against the drug-sensitive strain (NF54) of P. falciparum and for cytotoxicity against the Chinese Hamster Ovary (CHO) mammalian cell line using emetine as a reference drug. Aqueous solubility was determined at pH 6.5 (Table 2). Aqueous solubility. Water solubility was analyzed using a miniaturized shake flask method. Ten millimolar stock solutions of each of the compounds were used to prepare calibration standards (10-220 μM) in DMSO. The same 10 mM stock solutions were accurately dispensed in duplicate into 96-well plates, and the DMSO, dried down ([…],90 min, 37 °C). Thereafter, the samples were reconstituted (200 μM) in an aqueous solution and shaken (20 h, 25 °C). The solutions were analyzed by means of HPLC-DAD (Agilent1200 Rapid Resolution HPLC with a diode array detector). Best fit calibration curves were constructed using the calibration standards, which were used to determine the aqueous samples' solubility.

Compound	IC50 ([1]; Plasmodium falciparum) [nM]	IC50 [2] [nM]	SI (selectivity index) [2]	melting point [°C]	solubility at 20 h [3] [µM]	IC50 [1] [nM]
O=C(/C=C/c1ccccc1Cl)c1ccc(S(=O)(=O)NCCNc2ccnc3cc(Cl)ccc23)cc1 [Compound 25, (E)-4-(3-(2-chlorophenyl)acryloyl)-N-(2-((7-chloroquinolin-4-yl)amino)ethyl)benzenesulfonamide]	370	35400	95.7	209 to 211	19 (≈ 10 µg/mL)	
COc1ccc(/C=C/C(=O)c2ccc(S(=O)(=O)NCCNc3ccnc4cc(Cl)ccc34)cc2)cc1 [Compound 17, (E)-N-(2-((7-chloroquinolin-4-yl)amino)ethyl)-4-(3-(4-methoxyphenyl)acryloyl)benzenesulfonamide]	490	17500	35.7	222 to 225	185 (≈ 96.6 µg/mL)	
O=C(C=Cc1ccccc1)c1ccc(S(=O)(=O)NCCCNc2ccnc3cc(Cl)ccc23)cc1 [Compound 6, N-(3-((7-chloroquinolin-4-yl)amino)propyl)-4-cinnamoylbenzenesulfonamide]	1670	> 50000	>29	210 to 212		
COc1cc(/C=C/C(=O)c2ccc(S(=O)(=O)NCCCNc3ccnc4cc(Cl)ccc34)cc2)cc(OC)c1OC [Compound 16, (E)-N-(3-((7-chloroquinolin-4-yl)amino)propyl)-4-(3-(3,4,5-trimethoxyphenyl)acryloyl)benzenesulfonamide]	580	22600	39.0	197 to 200	15 (≈ 8.94 µg/mL)	
O=C(/C=C/c1ccc(F)cc1)c1ccc(S(=O)(=O)NCCNc2ccnc3cc(Cl)ccc23)cc1 [Compound 24, (E)-N-(2-((7-chloroquinolin-4-yl)amino)ethyl)-4-(3-(4-fluorophenyl)acryloyl)benzenesulfonamide]	570	14500	25.5	222 to 224	< 5	
O=C(/C=C/c1ccc(F)c(F)c1)c1ccc(S(=O)(=O)NCCCNc2ccnc3cc(Cl)ccc23)cc1 [Compound 13, (E)-N-(3-((7-chloroquinolin-4-yl)amino)propyl)-4-(3-(3,4-difluorophenyl)acryloyl)benzenesulfonamide]	2580	> 300000	>116	212 to 214	< 5	
O=C(/C=C/c1cc(F)ccc1F)c1ccc(S(=O)(=O)NCCCNc2ccnc3cc(Cl)ccc23)cc1 [Compound 20, (E)-N-(3-((7-chloroquinolin-4-yl)amino)propyl)-4-(3-(2,5-difluorophenyl)acryloyl)benzenesulfonamide]	790	43700	55.3	219 to 221		
Cc1ccc(/C=C/C(=O)c2ccc(S(=O)(=O)NCCCNc3ccnc4cc(Cl)ccc34)cc2)cc1 [Compound 7, (E)-N-(3-((7-chloroquinolin-4-yl)amino)propyl)-4-(3-(p-tolyl)acryloyl)benzenesulfonamide]	370	25100	67.8	209 to 213	130 (≈ 67.6 µg/mL)	
Cc1ccc(/C=C/C(=O)c2ccc(S(=O)(=O)NCCNc3ccnc4cc(Cl)ccc34)cc2)cc1 [Compound 22, (E)-N-(2-((7-chloroquinolin-4-yl)amino)ethyl)-4-(3-(p-tolyl)acryloyl)benzenesulfonamide]	390	24900	63.8	184 to 187	190 (≈ 96.1 µg/mL)	
O=C(/C=C/c1ccc(OC(F)(F)F)cc1)c1ccc(S(=O)(=O)NCCCNc2ccnc3cc(Cl)ccc23)cc1 [Compound 27, (E)-N-(3-((7-chloroquinolin-4-yl)amino)propyl)-4-(3-(4-(trifluoromethoxy)phenyl)acryloyl)benzenesulfonamide]	510	44000	86.3	223 to 225		
COc1ccc(/C=C/C(=O)c2ccc(S(=O)(=O)NCCCNc3ccnc4cc(Cl)ccc34)cc2)cc1OC [Compound 14, (E)-N-(3-((7-chloroquinolin-4-yl)amino)propyl)-4-(3-(3,4-dimethoxyphenyl)acryloyl)benzenesulfonamide]	320	43400	135.6	222 to 224		
O=C(/C=C/c1ccc2c(c1)OCO2)c1ccc(S(=O)(=O)NCCCNc2ccnc3cc(Cl)ccc23)cc1 [Compound 26, (E)-4-(3-(benzo[d][1,3]dioxol-5-yl)acryloyl)-N-(3-((7-chloroquinolin-4-yl)amino)propyl)benzenesulfonamide]	690	34100	49.5	222 to 224	200 (≈ 110 µg/mL)	
O=C(/C=C/c1ccc(F)cc1)c1ccc(S(=O)(=O)NCCCNc2ccnc3cc(Cl)ccc23)cc1 [Compound 9, (E)-N-(3-((7-chloroquinolin-4-yl)amino)propyl)-4-(3-(4-fluorophenyl)acryloyl)benzenesulfonamide]	280	14600	52.5	216 to 218	< 5	
(E)-N-(2-((7-chloroquinolin-4-yl)amino)ethyl)-4-(3-ferrocenyl)acryloyl)benzenesulfonamide [Compound 23]						1530
O=C(/C=C/c1ccco1)c1ccc(S(=O)(=O)NCCCNc2ccnc3cc(Cl)ccc23)cc1 [Compound 21, (E)-N-(3-((7-chloroquinolin-4-yl)amino)propyl)-4-(3-(furan-2-yl)acryloyl)benzenesulfonamide]	4450	> 50000	>11	222 to 224	200 (≈ 99.2 µg/mL)	
O=C(/C=C/c1ccc(F)cc1F)c1ccc(S(=O)(=O)NCCCNc2ccnc3cc(Cl)ccc23)cc1 [Compound 18, (E)-N-(3-((7-chloroquinolin-4-yl)amino)propyl)-4-(3-(2,4-difluorophenyl)acryloyl)benzenesulfonamide]	500	22400	45.2	216 to 218	130 (≈ 70.5 µg/mL)	
CC(=O)c1ccc(S(=O)(=O)NCCNc2ccnc3cc(Cl)ccc23)cc1 [Compound 4, 4-acetyl-N-(2-((7-chloroquinolin-4-yl)amino)ethyl)benzenesulfonamide]	450	26300	58.4	200 to 204	200 (≈ 80.8 µg/mL)	
CC[C@H]1CN2CCc3cc(OC)c(OC)cc3[C@@H]2C[C@@H]1C[C@H]1NCCc2cc(OC)c(OC)cc21 [Emetine, emetine, reference compound]		3.4				
COc1ccc(/C=C/C(=O)c2ccc(S(=O)(=O)NCCNc3ccnc4cc(Cl)ccc34)cc2)cc1OC [Compound 19, (E)-N-(2-((7-chloroquinolin-4-yl)amino)ethyl)-4-(3-(3,4-dimethoxyphenyl)acryloyl)benzenesulfonamide]	330	45100	136.7	223 to 225		
